The results in this text go back to patent publication US9623028B2, “Methods of treating a cancer using substituted pyrrolopyrimidine compounds, compositions thereof” (Signal Pharmaceuticals, LLC, priority 2014, dated 2017).

One experiment addresses CLK2 (Homo sapiens (Human), UniProt P49760). Description: biochemical. To be noted: read-out: CLK2 (% Inh.), % inhibition at 3 μM.
In a further experiment the target is CLK1 (Homo sapiens (Human), UniProt P49759). Description: biochemical. To be noted: read-out: CLK1 (% Inh.), % inhibition at 3 μM.
Sequence of CLK1 (P49759 whole entry): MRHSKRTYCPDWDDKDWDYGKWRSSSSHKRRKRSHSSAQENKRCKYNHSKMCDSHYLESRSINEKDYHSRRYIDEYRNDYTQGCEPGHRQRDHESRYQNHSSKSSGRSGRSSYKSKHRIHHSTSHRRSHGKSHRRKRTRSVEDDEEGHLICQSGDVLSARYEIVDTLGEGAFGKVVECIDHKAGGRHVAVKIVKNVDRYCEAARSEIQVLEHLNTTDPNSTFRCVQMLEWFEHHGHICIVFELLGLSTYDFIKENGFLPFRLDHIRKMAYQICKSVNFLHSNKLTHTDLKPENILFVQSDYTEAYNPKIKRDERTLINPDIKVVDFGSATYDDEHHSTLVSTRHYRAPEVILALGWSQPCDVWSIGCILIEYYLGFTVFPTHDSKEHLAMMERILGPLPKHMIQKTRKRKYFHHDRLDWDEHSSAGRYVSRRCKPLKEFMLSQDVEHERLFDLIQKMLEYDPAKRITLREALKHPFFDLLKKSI

Sequence of CLK2 (P49760 whole entry): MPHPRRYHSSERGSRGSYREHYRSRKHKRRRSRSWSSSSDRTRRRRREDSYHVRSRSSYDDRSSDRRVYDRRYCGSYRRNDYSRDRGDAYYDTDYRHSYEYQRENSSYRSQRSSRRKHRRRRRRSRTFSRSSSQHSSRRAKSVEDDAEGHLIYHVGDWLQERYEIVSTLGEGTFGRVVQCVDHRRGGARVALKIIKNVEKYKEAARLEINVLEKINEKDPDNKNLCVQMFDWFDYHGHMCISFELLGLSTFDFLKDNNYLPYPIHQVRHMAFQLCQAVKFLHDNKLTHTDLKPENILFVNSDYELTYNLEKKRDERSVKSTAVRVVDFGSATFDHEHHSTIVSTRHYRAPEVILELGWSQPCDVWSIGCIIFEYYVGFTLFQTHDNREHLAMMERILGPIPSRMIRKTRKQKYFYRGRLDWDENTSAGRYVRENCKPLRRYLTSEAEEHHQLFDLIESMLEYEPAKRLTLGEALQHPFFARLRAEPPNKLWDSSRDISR

In general, inhibition refers to the drop in the measured response relative to a control, in per cent. Take `CNC(=O)c1ccc(Nc2nc(OC3CCCC3)c3c(-c4ccc(O)cc4)c[nH]c3n2)c(C(C)C)c1` [Compound 11, 4-(4-(cyclopentyloxy)-5-(4-hydroxyphenyl)-7H-pyrrolo[2,3-d]pyrimidin-2-ylamino)-3-isopropyl-N-methylbenzamide]: the inhibition at 3 µM on CLK2 is 94%; at CLK1, 95%.
For `CNC(=O)c1ccc(Nc2nc(NC3CCCC3)c3c(-c4ccc(O)cc4)c[nH]c3n2)c(OC)c1` [Compound 16, 4-(4-(cyclopentylamino)-5-(4-hydroxyphenyl)-7H-pyrrolo[2,3-d]pyrimidin-2-ylamino)-3-methoxy-N-methylbenzamide], in that order: 90% and 92%.
For the molecule `CNC(=O)c1ccc(Nc2nc(OC3CCOCC3)c3c(-c4ccc(O)cc4)c[nH]c3n2)c(OC)c1` [Compound 17, 4-(5-(4-hydroxyphenyl)-4-(tetrahydro-2H-pyran-4-yloxy)-7H-pyrrolo[2,3-d]pyrimidin-2-ylamino)-3-methoxy-N-methylbenzamide], the inhibition at 3 µM at CLK2 amounted to 98%; at CLK1 it was 97%.
In the case of `CNC(=O)c1ccc(Nc2nc(OC3CCCC3)c3c(-c4cccnc4)c[nH]c3n2)c(OC)c1` [Compound 58, 4-(4-(cyclopentyloxy)-5-(pyridin-3-yl)-7H-pyrrolo[2,3-d]pyrimidin-2-ylamino)-3-methoxy-N-methylbenzamide], the inhibition at 3 µM on CLK2 turned out to be 103%; on CLK1, 96%.
For `CNC(=O)c1ccc(Nc2nc(OC3CCCC3)c3c(-c4ccc(OC)c(OC)c4)c[nH]c3n2)c(OC)c1` [Compound 64, 4-(4-(cyclopentyloxy)-5-(3,4-dimethoxyphenyl)-7H-pyrrolo[2,3-d]pyrimidin-2-ylamino)-3-methoxy-N-methylbenzamide], in that order: 99% and 68%.
Taken in the same sequence, the figures for `COc1nc(Nc2ccc(C(=O)N(C)C)cc2C)nc2[nH]cc(-c3ccncc3)c12` [Compound 89, 4-(4-methoxy-5-(pyridin-4-yl)-7H-pyrrolo[2,3-d]pyrimidin-2-ylamino)-N,N,3-trimethylbenzamide] were 100% and 101%.
In the case of `Cc1nc2ccc(-c3c[nH]c4nc(Nc5ccc(C(=O)N(C)C)cc5C)nc(O[C@H]5CCOC5)c34)cc2o1` [Compound 98, (S)-N,N,3-trimethyl-4-(5-(2-methylbenzo[d]oxazol-6-yl)-4-(tetrahydrofuran-3-yloxy)-7H-pyrrolo[2,3-d]pyrimidin-2-ylamino)benzamide], the inhibition at 3 µM at CLK2 came to 104%; at CLK1 it was 103%.
On to `CNC(=O)c1ccc(Nc2nc(OC)c3c(-c4ccc(OC)nc4)c[nH]c3n2)c(OC)c1` [Compound 118, 3-methoxy-4-(4-methoxy-5-(6-methoxypyridin-3-yl)-7H-pyrrolo[2,3-d]pyrimidin-2-ylamino)-N-methylbenzamide], for which the inhibition at 3 µM at CLK2 and at CLK1 was 98% each time.
As to `CNC(=O)c1ccc(Nc2nc(O[C@H]3CCOC3)c3c(-c4ccc5nc(C)oc5c4)c[nH]c3n2)c(C)c1` [Compound 133, (S)-N,3-dimethyl-4-(5-(2-methylbenzo[d]oxazol-6-yl)-4-(tetrahydrofuran-3-yloxy)-7H-pyrrolo[2,3-d]pyrimidin-2-ylamino)benzamide], the figures for the inhibition at 3 µM at CLK2 and at CLK1 were 101% and 104%, respectively.
For `CNC(=O)c1ccc(Nc2nc(OCCOC)c3c(-c4ccc5nc(C)oc5c4)c[nH]c3n2)c(OC)c1` [Compound 139, 3-methoxy-4-(4-(2-methoxyethoxy)-5-(2-methylbenzo[d]oxazol-6-yl)-7H-pyrrolo[2,3-d]pyrimidin-2-ylamino)-N-methylbenzamide], in that order: 99% and 104%.
As to `Cc1cc(C(=O)N(C)C)ccc1Nc1nc(OC2CCOCC2)c2c(-c3ccnc(C#N)c3)c[nH]c2n1` [Compound 140, 4-(5-(2-cyanopyridin-4-yl)-4-(tetrahydro-2H-pyran-4-yloxy)-7H-pyrrolo[2,3-d]pyrimidin-2-ylamino)-N,N,3-trimethylbenzamide], the inhibition at 3 µM on CLK2 is 103%; on CLK1 it was 97%.
On to `CNC(=O)c1ccc(Nc2nc(OC3CCOCC3)c3c(-c4ccc5nc(C)n(C)c5c4)c[nH]c3n2)c(OC)c1` [Compound 148, 4-(5-(1,2-dimethyl-1H-benzo[d]imidazol-6-yl)-4-(tetrahydro-2H-pyran-4-yloxy)-7H-pyrrolo[2,3-d]pyrimidin-2-ylamino)-3-methoxy-N-methylbenzamide], for which the results for the inhibition at 3 µM on CLK2 and on CLK1 were 106% and 99%, respectively.
Taken in the same sequence, the figures for `CNC(=O)c1ccc(Nc2nc(OC3CCC(C)(O)CC3)c3c(-c4ccc5nc(C)oc5c4)c[nH]c3n2)c(C)c1` (stereo not shown) [Compound 150, 4-(4-((1r,4r)-4-hydroxy-4-methylcyclohexyloxy)-5-(2-methylbenzo[d]oxazol-6-yl)-7H-pyrrolo[2,3-d]pyrimidin-2-ylamino)-N,3-dimethylbenzamide] were 111% and 99%.
With `COc1nc(Nc2ccc(C(=O)N(C)C)cc2Cl)nc2[nH]cc(-c3ccncc3)c12` [Compound 157, 3-chloro-4-(4-methoxy-5-(pyridin-4-yl)-7H-pyrrolo[2,3-d]pyrimidin-2-ylamino)-N,N-dimethylbenzamide], the inhibition at 3 µM came to 105% at CLK2 and 95% at CLK1.
On to `COc1cc(C(=O)NCCO)ccc1Nc1nc(OC(C)C)c2c(-c3ccc4nc(C)oc4c3)c[nH]c2n1` [Compound 160, N-(2-hydroxyethyl)-4-(4-isopropoxy-5-(2-methylbenzo[d]oxazol-6-yl)-7H-pyrrolo[2,3-d]pyrimidin-2-ylamino)-3-methoxybenzamide], for which the inhibition at 3 µM at CLK2 came to 108%; at CLK1, 98%.
With `CCOc1ccc(-c2c[nH]c3nc(Nc4ccc(C(=O)NC)cc4C)nc(O[C@H]4CCOC4)c23)cn1` [Compound 162, (S)-4-(5-(6-ethoxypyridin-3-yl)-4-(tetrahydrofuran-3-yloxy)-7H-pyrrolo[2,3-d]pyrimidin-2-ylamino)-N,3-dimethylbenzamide], the inhibition at 3 µM amounted to 106% on CLK2 and 100% at CLK1.
With `CNC(=O)c1ccc(Nc2nc(OC3CCOCC3)c3c(-c4ccn(C)n4)c[nH]c3n2)c(OC)c1` [Compound 163, 3-methoxy-N-methyl-4-(5-(1-methyl-1H-pyrazol-3-yl)-4-(tetrahydro-2H-pyran-4-yloxy)-7H-pyrrolo[2,3-d]pyrimidin-2-ylamino)benzamide], the inhibition at 3 µM is 102% on CLK2 and 100% on CLK1.
`CNC(=O)c1ccc(Nc2nc(O[C@H]3CCOC3)c3c(-c4ccc5nc(C)oc5c4)c[nH]c3n2)c(OC)c1` [Compound 169, (S)-3-methoxy-N-methyl-4-(5-(2-methylbenzo[d]oxazol-6-yl)-4-(tetrahydrofuran-3-yloxy)-7H-pyrrolo[2,3-d]pyrimidin-2-ylamino)benzamide]: the inhibition at 3 µM on CLK2 was 105%; on CLK1, 100%.
As for `CNC(=O)c1ccc(Nc2nc(OC3CCOCC3)c3c(-c4cnn(C)c4)c[nH]c3n2)c(OC)c1` [Compound 184, 3-methoxy-N-methyl-4-(5-(1-methyl-1H-pyrazol-4-yl)-4-(tetrahydro-2H-pyran-4-yloxy)-7H-pyrrolo[2,3-d]pyrimidin-2-ylamino)benzamide], the inhibition at 3 µM at CLK2 worked out at 98%; on CLK1, 101%.
Regarding `CNC(=O)c1ccc(Nc2nc(OC(C)C)c3c(-c4ccnc(OC)c4)c[nH]c3n2)c(OC)c1` [Compound 185, 4-(4-isopropoxy-5-(2-methoxypyridin-4-yl)-7H-pyrrolo[2,3-d]pyrimidin-2-ylamino)-3-methoxy-N-methylbenzamide], the inhibition at 3 µM on CLK2 is 106%; at CLK1 it was 98%.
For `CNC(=O)c1ccc(Nc2nc(OC(C)C)c3c(-c4ccc(-c5ncc[nH]5)cc4)c[nH]c3n2)c(OC)c1` [Compound 193, 4-(5-(4-(1H-imidazol-2-yl)phenyl)-4-isopropoxy-7H-pyrrolo[2,3-d]pyrimidin-2-ylamino)-3-methoxy-N-methylbenzamide], in that order: 99% and 100%.
As for `CNC(=O)c1ccc(Nc2nc(OC3CCOCC3)c3c(-c4ccc(-c5nc(C)c(C)[nH]5)cc4)c[nH]c3n2)c(OC)c1` [Compound 197, 4-(5-(4-(4,5-dimethyl-1H-imidazol-2-yl)phenyl)-4-(tetrahydro-2H-pyran-4-yloxy)-7H-pyrrolo[2,3-d]pyrimidin-2-ylamino)-3-methoxy-N-methylbenzamide], the inhibition at 3 µM at CLK2 amounted to 103%; on CLK1 it was 100%.
Taken in the same sequence, the figures for `CNC(=O)c1ccc(Nc2nc(OC3CCC3)c3c(-c4ccc5nc(C)oc5c4)c[nH]c3n2)c(OC)c1` [Compound 198, 4-(4-cyclobutoxy-5-(2-methylbenzo[d]oxazol-6-yl)-7H-pyrrolo[2,3-d]pyrimidin-2-ylamino)-3-methoxy-N-methylbenzamide] were 100% and 93%.
`CNC(=O)c1ccc(Nc2nc(OC(C)C)c3c(-c4ccnc(C)c4)c[nH]c3n2)c(OC)c1` [Compound 201, 4-(4-isopropoxy-5-(2-methylpyridin-4-yl)-7H-pyrrolo[2,3-d]pyrimidin-2-ylamino)-3-methoxy-N-methylbenzamide]: the inhibition at 3 µM at CLK2 was found to be 103%; on CLK1, 100%.
For `CNC(=O)c1ccc(Nc2nc(NC(C)C)c3c(-c4ccc5nc(C)oc5c4)c[nH]c3n2)c(OC)c1` [Compound 202, 4-(4-(isopropylamino)-5-(2-methylbenzo[d]oxazol-6-yl)-7H-pyrrolo[2,3-d]pyrimidin-2-ylamino)-3-methoxy-N-methylbenzamide], in that order: 99% and 99%.
As to `CC[C@@H](C)Oc1nc(Nc2ccc(C(=O)NC)cc2OC)nc2[nH]cc(-c3ccc4nc(C)oc4c3)c12` [Compound 203, (R)-4-(4-sec-butoxy-5-(2-methylbenzo[d]oxazol-6-yl)-7H-pyrrolo[2,3-d]pyrimidin-2-ylamino)-3-methoxy-N-methylbenzamide], the figures for the inhibition at 3 µM at CLK2 and on CLK1 were 99% and 98%, respectively.
